Values quoted from earlier work as cited in patent US11459499B2, “Amidoamine-based gemini surfactant containing ethoxylate units and a method for oil recovery” (King Fahd University of Petroleum and Minerals, priority 2018, dated 2022).
Where two headings read alike, the source gives them in different places.

SMILES	reported CMC (literature (Lu et al., 2012))	reported CMC (literature (Hoque et al., 2012)) [mM]
CCCCCCCCCCCC[N+](C)(C)CC[N+](C)(C)CCCCCCCCCCCC.[Br-].[Br-] [12-2-12]	about 5.5×10^−2 wt. %	–
CCCCCCCCCCCC[N+](C)(C)C.[Br-] [DTAB, dodecyltrimethylammonium bromide]	5.0×10^−1 wt. %	16.1
